Data reported in paper PMC3079261 (Tetrahedron letters, 2011).

Biological target: FGFR1 kinase domain (Homo sapiens, UniProt P11362)
Test: ALPHAScreen assay of inhibition of phosphorylation by FGFR1 kinase
Assay type: biochemical

Chain of FGFR1 kinase domain (P11362 478-767 limits assumed): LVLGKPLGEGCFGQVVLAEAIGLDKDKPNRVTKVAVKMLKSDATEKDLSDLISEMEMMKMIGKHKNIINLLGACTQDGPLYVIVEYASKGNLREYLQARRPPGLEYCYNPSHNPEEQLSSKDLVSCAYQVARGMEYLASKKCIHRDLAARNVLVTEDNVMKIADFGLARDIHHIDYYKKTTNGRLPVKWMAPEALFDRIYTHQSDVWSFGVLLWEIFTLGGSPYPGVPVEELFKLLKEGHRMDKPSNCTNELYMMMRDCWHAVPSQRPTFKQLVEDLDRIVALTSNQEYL

| IC50 | SMILES |
| --- | --- |
| 28 µM | COc1cc(OC)cc(-c2ccc3c(c2)sc2nc(-c4ccc(OCC(=O)O)c(OC)c4)[nH]c(=O)c23)c1 [compound 6, 2-(4-(7-(3,5-dimethoxyphenyl)-4-oxo-3,4-dihydrobenzo[4,5]thieno[2,3-d]pyrimidin-2-yl)-2-methoxyphenoxy)acetic acid] |
| 21 µM | COc1cc(OC)cc(-c2ccc3c(c2)sc2nc(CCC(=O)O)[nH]c(=O)c23)c1 [compound 7, 3-(7-(3,5-dimethoxyphenyl)-4-oxo-3,4-dihydrobenzo[4,5]thieno[2,3-d]pyrimidin-2-yl)propanoic acid] |
